According to US9283213B2, “Dihydropyridin-2(1H)-one compounds as S-nitrosoglutathione reductase inhibitors and neurokinin-3 receptor antagonists” (N30 Pharmaceuticals, Inc., priority 2010, dated 2016):

Key:
[1] = Mouse pharmacokinetic (PK) study; type: in vivo; settings: plasma, male BALB/c mice, PO 10 mg/kg vs IV 2 mg/kg, read-out: oral bioavailability (% F)
Excerpt: The mouse is used to determine the pharmacokinetics of compounds of the invention. This species is widely used to assess the bioavailability of compounds by administering both oral (PO) and intravenous (IV) test articles. Efficacy of the compounds of the invention are compared by assessing plasma exposure in male BALB/c mice either via IV or PO administration at the times of peak activity.
Compounds of the invention are reconstituted in a phosphate buffered saline (PBS)/10% Solutol (HS 15) clear solution resulting in a concentration of 0.2 mg/mL and administered to mice (2 mg/kg) as a single IV dose. Animals dosed via the lateral tail vein. […] The plasma is transferred into labeled polypropylene tubes and frozen at −70° C. until analyzed by LC/MS/MS.
The compounds of the invention are reconstituted in 40% Propylene Glycol/40% Propylene Carbonate/20% of a 5% Sucrose clear solution resulting in a concentration of 2 mg/mL and administered to mice (10 mg/kg) as a single oral dose via gavage. […] The plasma is transferred into labeled polypropylene tubes and frozen at −70° C. until analyzed by LC/MS/MS.
Plasma samples at each timepoint were analyzed using a LC-MS/MS with a lower limit of quantification (LLOQ) of 1 ng/mL. […]
In addition to the above PK parameters, bioavailability (% F) was calculated.

GSNOR = target: T1, GSNOR (Homo sapiens, UniProt P11766); experiment: GSNOR assay (inhibition of GSNOR activity in vitro); type: biochemical; settings: 0.240 mM GSNO, 0.300 mM NADH, pH 7.4, 25° C.; read-out: GSNOR inhibitor IC50
T1 construct: made in house; host or cells: E. coli
T1 sequence (P11766 whole entry): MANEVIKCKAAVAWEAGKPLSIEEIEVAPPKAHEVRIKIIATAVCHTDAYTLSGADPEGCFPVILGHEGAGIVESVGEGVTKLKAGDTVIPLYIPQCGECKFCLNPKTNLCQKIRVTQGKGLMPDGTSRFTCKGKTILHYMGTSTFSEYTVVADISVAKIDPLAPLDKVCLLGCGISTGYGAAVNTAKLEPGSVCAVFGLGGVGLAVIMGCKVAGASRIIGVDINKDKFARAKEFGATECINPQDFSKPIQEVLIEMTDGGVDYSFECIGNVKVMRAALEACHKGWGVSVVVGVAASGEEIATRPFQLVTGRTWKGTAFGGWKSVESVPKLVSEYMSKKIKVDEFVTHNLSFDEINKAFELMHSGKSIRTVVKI
Description: Various compounds were tested in vitro for their ability to inhibit GSNOR activity.
Pre-cultures were grown from stabs of a GSNOR glycerol stock in 2XYT media containing 100 ug/ml ampicillin after an overnight incubation at 37° C. Cells were then added to fresh 2XYT (4 L) containing ampicillin and grown to an OD (A600) of 0.6-0.9 at 37° C. before induction. GSNOR expression was induced with 0.1% arabinose in an overnight incubation at 20° C.
E. coli cell paste was lysed by nitrogen cavitation and the clarified lysate purified by Ni affinity chromatography on an AKTA FPLC (Amersham Pharmacia). The column was eluted in 20 mM Tris pH 8.0/250 mM NaCl with a 0-500 mM imidazole gradient. […] GSNOR was recovered in the flowthrough fraction and for crystallography is further purified by Q-Sepharose and Heparin flowthrough chromatography in 20 mM Tris pH 8.0, 1 mM DTT, 10 uM ZnSO4.
GSNO and Enzyme/NADH Solutions are made up fresh each day. The Solutions are filtered and allowed to warm to room temperature. GSNO Solution: 100 mM NaPO4 (pH 7.4), 0.480 mM GSNO. 396 μL of GSNO Solution is added to a cuvette followed by 8 μL of test compound in DMSO (or DMSO only for full reaction control) and mixed with the pipette tip. Compounds to be tested are made up at a stock concentration of 10 mM in 100% DMSO. 2 fold serial dilutions are done in 100% DMSO. 8 μL of each dilution are added to an assay so that the final concentration of DMSO in the assay is 1%. The concentrations of compounds tested range from 100 to 0.003 μM. Enzyme/NADH Solution: 100 mM NaPO4 (pH 7.4), 0.600 mM NADH, 1.0 μg/mL GSNO Reductase. 396 μL of the Enzyme/NADH Solution is added to the cuvette to start the reaction. The cuvette is placed in the Cary 3E UV/Visible Spectrophotometer and the change in 340 nm absorbance/min at 25° C. is recorded for 3 minutes. The assays are done in triplicate for each compound concentration. IC50's for each compound are calculated using the standard curve analysis in the Enzyme Kinetics Module of SigmaPlot.
Final assay conditions: 100 mM NaPO4, pH 7.4, 0.240 mM GSNO, 0.300 mM NADH, 0.5 μg/mL GSNO Reductase and 1% DMSO. Final volume: 800 μL/cuvette.

- bioavailability [1]: 22%
- IC50 (GSNOR): < 100 nM
SMILES: O=C1CC(c2ccc(C(=O)O)c(O)c2)C(c2ccccc2)=C(c2ccccc2)N1 (centres unmarked) [Example 6, 2-hydroxy-4-(2-oxo-5,6-diphenyl-1,2,3,4-tetrahydropyridin-4-yl)benzoic acid]
